Experiments:
Format in all cases: in vivo
[1] = system: oat, wild (wild oat, Avena fatua); experiment: Test C preemergence, wild oat; conditions: 0 is no effect, 100 is complete control
How it was run: (§1)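 Pre: soil sprayed at seeding. Post: seedlings treated at 1–2 leaves (2–10 cm). Vehicle non-phytotoxic solvent mix with surfactant; loam–sand medium; greenhouse; visual injury read at 10 or 12 days, scale 0–100.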

[2] = system: foxtail, giant (giant foxtail, Setaria faberi); experiment: Test C preemergence, giant foxtail; conditions: 0 is no effect, 100 is complete control
How it was run: as §1

[3] = system: blackgrass (Alopecurus myosuroides); experiment: Test C postemergence, blackgrass; conditions: 31 g ai/ha Postemergence; visual injury, 0 to 100 scale (0 no effect, 100 complete control)
How it was run: as §1

soybean (Glycine max) [4] = experiment: Test C preemergence, soybean; conditions: 0 is no effect, 100 is complete control
How it was run: as §1

[5] = system: pigweed, palmer (palmer amaranth, Amaranthus palmeri); experiment: Test C preemergence, palmer amaranth; conditions: 0 is no effect, 100 is complete control
How it was run: as §1

[6] = system: galium (catchweed bedstraw, Galium aparine); experiment: Test C postemergence, galium
[7] = system: foxtail, giant (giant foxtail, Setaria faberi); experiment: Test C postemergence, giant foxtail
[8] = system: blackgrass (Alopecurus myosuroides); experiment: Test C preemergence, blackgrass; conditions: 0 is no effect, 100 is complete control
How it was run: as §1

kochia (Bassia scoparia) [9] = experiment: Test C postemergence, kochia
How it was run: as §1

[10] = system: ryegrass, Italian (Italian ryegrass, Lolium multiflorum); experiment: Test C preemergence, Italian ryegrass; conditions: 0 is no effect, 100 is complete control
How it was run: as §1

[11] = system: ragweed (common ragweed, Ambrosia artemisiifolia); experiment: Test C postemergence, ragweed; conditions: visual injury, 0 to 100 scale (0 no effect, 100 complete control)
How it was run: as §1

corn (Zea mays) [12] = experiment: Test C postemergence, corn
[13] = system: wheat (Triticum aestivum); experiment: Test C preemergence, wheat; conditions: 0 is no effect, 100 is complete control
kochia (Bassia scoparia) [14] = experiment: Test C preemergence, kochia; conditions: 0 is no effect, 100 is complete control
How it was run: as §1

corn (Zea mays) [15] = experiment: Test C preemergence, corn; conditions: 0 is no effect, 100 is complete control
How it was run: (§2)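 Visual injury rating, 0 (no effect) to 100 (complete control), versus untreated controls after 10 or 12 days in the greenhouse. Compounds were formulated in non-phytotoxic solvent plus surfactant and applied either as a directed soil spray at sowing or onto emerged one- to two-leaf plants.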

[16] = system: oat, wild (wild oat, Avena fatua); experiment: Test C postemergence, wild oat
[17] = system: ryegrass, Italian (Italian ryegrass, Lolium multiflorum); experiment: Test C postemergence, Italian ryegrass; conditions: visual injury, 0 to 100 scale (0 no effect, 100 complete control)
How it was run: as §1

[18] = system: goosegrass (Eleusine indica); experiment: Test C preemergence, goosegrass; conditions: 0 is no effect, 100 is complete control
How it was run: as §2

rice (Oryza sativa) = experiment: Test D flooded paddy test, rice; parameters: key: 0 = no effect, 100 = complete control; conditions: 250 g ai/ha, Flood; applied to paddy water at 2-leaf stage; visual rating after 13 days; scale 0 (no effect) to 100 (complete control)
How it was run: (§3)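 Plants were grown to the 2-leaf stage, then pots were flooded to 3 cm above soil and compounds applied directly into the paddy water, with that depth held throughout. After 13 days in a greenhouse, injury was visually rated against untreated controls on a 0–100 scale (0 no effect, 100 complete control).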

[19] = system: pigweed, palmer (palmer amaranth, Amaranthus palmeri); experiment: Test C postemergence, palmer amaranth; conditions: visual injury, 0 to 100 scale (0 no effect, 100 complete control)
How it was run: as §1

[20] = system: goosegrass (Eleusine indica); experiment: Test C postemergence, goosegrass
How it was run: as §1

[21] = system: blackgrass (Alopecurus myosuroides); experiment: Test C postemergence, blackgrass; conditions: 125 g ai/ha Postemergence; 0 is no effect, 100 is complete control
[22] = system: sedge, umbrella (small-flower umbrella sedge, Cyperus difformis); experiment: Test D flooded paddy test, umbrella sedge; parameters: key: 0 = no effect, 100 = complete control; conditions: 250 g ai/ha, Flood; applied to paddy water at 2-leaf stage; visual rating after 13 days; scale 0 (no effect) to 100 (complete control)
How it was run: as §3

[23] = system: horseweed (Erigeron canadensis); experiment: Test C postemergence, horseweed
How it was run: as §1

[24] = system: ducksalad (Heteranthera limosa); experiment: Test D flooded paddy test, ducksalad; parameters: key: 0 = no effect, 100 = complete control; conditions: 250 g ai/ha, Flood; applied to paddy water at 2-leaf stage; visual rating after 13 days; scale 0 (no effect) to 100 (complete control)
How it was run: as §3

[25] = system: barnyardgrass (Echinochloa crusgalli); experiment: Test D flooded paddy test, barnyardgrass; parameters: key: 0 = no effect, 100 = complete control; conditions: 250 g ai/ha, Flood; applied to paddy water at 2-leaf stage; visual rating after 13 days; scale 0 (no effect) to 100 (complete control)
How it was run: as §3

[26] = system: ragweed (common ragweed, Ambrosia artemisiifolia); experiment: Test C preemergence, ragweed; conditions: 0 is no effect, 100 is complete control
How it was run: as §2

soybean (Glycine max) [27] = experiment: Test C postemergence, soybean; conditions: visual injury, 0 to 100 scale (0 no effect, 100 complete control)
[28] = system: wheat (Triticum aestivum); experiment: Test C postemergence, wheat; conditions: visual injury, 0 to 100 scale (0 no effect, 100 complete control)
How it was run: as §1

[29] = 31 g ai/ha Postemergence, visual injury, 0 to 100 scale (0 no effect, 100 complete control)
[30] = 125 g ai/ha Postemergence, 0 is no effect, 100 is complete control

Cc1c(NS(=O)(=O)C(F)(F)F)cc(N2CCCC(OC3CC3)C2=O)c(C)c1F (stereo not shown) [Compound 35]
Plant response rating (0 to 100 scale), Oat, Wild ([1]; 31 g ai/ha Preemergence): 20
Plant response rating (0 to 100 scale), Oat, Wild ([1]; 125 g ai/ha Preemergence): 90
Plant response rating (0 to 100 scale), Foxtail, Giant ([2]; 31 g ai/ha Preemergence): 90
Plant response rating (0 to 100 scale), Foxtail, Giant ([2]; 125 g ai/ha Preemergence): 100
Blackgrass plant response rating [3]: 50
Plant response rating (0 to 100 scale), Soybean (soybean (Glycine max) [4]; 31 g ai/ha Preemergence): 50
Plant response rating (0 to 100 scale), Soybean (soybean (Glycine max) [4]; 125 g ai/ha Preemergence): 90
Plant response rating (0 to 100 scale), Pigweed, Palmer ([5]; 31 g ai/ha Preemergence): 100
Plant response rating (0 to 100 scale), Pigweed, Palmer ([5]; 125 g ai/ha Preemergence): 100
Galium plant response rating [6, 29]: 70
Plant response rating (0 to 100 scale), Galium [6, 30]: 100
Foxtail, Giant plant response rating [7, 29]: 40
Plant response rating (0 to 100 scale), Foxtail, Giant [7, 30]: 90
Plant response rating (0 to 100 scale), Blackgrass ([8]; 31 g ai/ha Preemergence): 70
Plant response rating (0 to 100 scale), Blackgrass ([8]; 125 g ai/ha Preemergence): 100
Kochia plant response rating (kochia (Bassia scoparia) [9]; [29]): 50
Plant response rating (0 to 100 scale), Kochia (kochia (Bassia scoparia) [9]; [30]): 90
Plant response rating (0 to 100 scale), Ryegrass, Italian ([10]; 31 g ai/ha Preemergence): 100
Plant response rating (0 to 100 scale), Ryegrass, Italian ([10]; 125 g ai/ha Preemergence): 100
Ragweed plant response rating ([11]; 31 g ai/ha Postemergence): 60
Ragweed plant response rating ([11]; 125 g ai/ha Postemergence): 90
Corn plant response rating (corn (Zea mays) [12]; [29]): 50
Plant response rating (0 to 100 scale), Corn (corn (Zea mays) [12]; [30]): 90
Plant response rating (0 to 100 scale), Wheat ([13]; 31 g ai/ha Preemergence): 20
Plant response rating (0 to 100 scale), Wheat ([13]; 125 g ai/ha Preemergence): 100
Plant response rating (0 to 100 scale), Kochia (kochia (Bassia scoparia) [14]; 31 g ai/ha Preemergence): 20
Plant response rating (0 to 100 scale), Kochia (kochia (Bassia scoparia) [14]; 125 g ai/ha Preemergence): 80
Plant response rating (0 to 100 scale), Corn (corn (Zea mays) [15]; 31 g ai/ha Preemergence): 30
Plant response rating (0 to 100 scale), Corn (corn (Zea mays) [15]; 125 g ai/ha Preemergence): 50
Oat, Wild plant response rating [16, 29]: 40
Plant response rating (0 to 100 scale), Oat, Wild [16, 30]: 70
Ryegrass, Italian plant response rating ([17]; 31 g ai/ha Postemergence): 50
Ryegrass, Italian plant response rating ([17]; 125 g ai/ha Postemergence): 60
Plant response rating (0 to 100 scale), Goosegrass ([18]; 31 g ai/ha Preemergence): 100
Plant response rating (0 to 100 scale), Goosegrass ([18]; 125 g ai/ha Preemergence): 100
Plant response rating, Rice (rice (Oryza sativa)): 0
Pigweed, Palmer plant response rating ([19]; 31 g ai/ha Postemergence): 40
Pigweed, Palmer plant response rating ([19]; 125 g ai/ha Postemergence): 70
Goosegrass plant response rating [20, 29]: 70
Plant response rating (0 to 100 scale), Goosegrass [20, 30]: 90
Plant response rating (0 to 100 scale), Blackgrass [21]: 60
Plant response rating, Sedge, Umbrella [22]: 95
Horseweed plant response rating [23, 29]: 90
Plant response rating (0 to 100 scale), Horseweed [23, 30]: 100
Plant response rating, Ducksalad [24]: 55
Plant response rating, Barnyardgrass [25]: 0
Plant response rating (0 to 100 scale), Ragweed ([26]; 31 g ai/ha Preemergence): 50
Plant response rating (0 to 100 scale), Ragweed ([26]; 125 g ai/ha Preemergence): 90
Soybean plant response rating (soybean (Glycine max) [27]; 31 g ai/ha Postemergence): 60
Soybean plant response rating (soybean (Glycine max) [27]; 125 g ai/ha Postemergence): 60
Wheat plant response rating ([28]; 31 g ai/ha Postemergence): 60
Wheat plant response rating ([28]; 125 g ai/ha Postemergence): 60

Source: patent publication US20240158348A1, “HERBICIDAL CYCLIC AMIDES N-SUBSTITUTED WITH A HALOALKYLSULFONYLANILIDE GROUP” (FMC Corporation, priority 2021, published 2024)
